Experimental data published in US8883748B2, “Formulation for treating fungal infection” (Lifecare Innovations Pvt. Ltd., priority 2009, dated 2014).
Converted amounts (≈) assume the structure as drawn.

Assays:
Test in all cases: In-vitro antifungal spectrum and MIC, clinical isolates
Type in all cases: cell-based
[1] = system: Paeciliomyces spp.; details: for MIC: in µg/mL (unit assumed)
Protocol: (§1) The experiments were carried out to determine antifungal spectrum and MIC of Nanosomal Amphotericin B vis-à-vis commonly used antifungals viz.
(§2) Amphotericin B, Voriconazole, Itraconazole and Fluconazole to ascertain efficacy against pathogenic yeasts and moulds including dermatophytes.

[2] = system: Fusarium spp.; details: for MIC: in µg/mL (unit assumed)
Protocol: as §1, §2

[3] = system: Sporothrix schenckii; details: for MIC: in µg/mL (unit assumed)
Protocol: as §1, §2

[4] = system: Aspergillus oryzae; details: for MIC: in µg/mL (unit assumed)
Protocol: as §1, §2

[5] = system: Alternaria spp.; details: for MIC: in µg/mL (unit assumed)
Protocol: as §1, §2

[6] = system: Mucor spp.; details: for MIC: in µg/mL (unit assumed)
Protocol: as §1, §2

[7] = system: Pseudallescheria boydii; details: for MIC: in µg/mL (unit assumed)
Protocol: as §1, §2

[8] = system: Phialophora verrucosa; details: for MIC: unit assumed
Protocol: as §1, §2

[9] = system: Apophysomyces elegans; details: for MIC: unit assumed
Protocol: as §1, §2

[10] = system: Absidia corymbifera; details: for MIC: in µg/mL (unit assumed)
Protocol: as §1, §2

[11] = system: Scytalidum dimidatum; details: for MIC: unit assumed
Protocol: as §1, §2

[12] = system: Rhizopus arrhizus, R. pusilus; details: for MIC: in µg/mL (unit assumed)
Protocol: as §1, §2

[13] = system: Candida albicans; details: for MIC: in µg/mL (unit assumed)
Protocol: as §1, §2

[14] = system: Trichophyton mentagrophytes; details: for MIC: in µg/mL (unit assumed)
Protocol: as §1, §2

[15] = system: Cryptococcus neoformans; details: for MIC: in µg/mL (unit assumed)
Protocol: as §1, §2

[16] = system: Penicillium marneffei; details: for MIC: in µg/mL (unit assumed)
Protocol: as §1, §2

[17] = system: Curvularia spp.; details: for MIC: in µg/mL (unit assumed)
Protocol: as §1, §2

[18] = system: Microsporum gypseum; details: for MIC: in µg/mL (unit assumed)
Protocol: as §1, §2

[19] = system: Cladophialophora bantiana; details: for MIC: in µg/mL (unit assumed)
Protocol: as §1, §2

[20] = system: Aspergillus flavus, A. fumigatus; details: for MIC: in µg/mL (unit assumed)
Protocol: as §1, §2

[21] = system: Trichophyton rubrum; details: for MIC: in µg/mL (unit assumed)
Protocol: as §1, §2

SMILES: CCC(C)n1ncn(-c2ccc(N3CCN(c4ccc(OCC5COC(Cn6cncn6)(c6ccc(Cl)cc6Cl)O5)cc4)CC3)cc2)c1=O (centres unmarked) [Itraconazole]
- MIC [1]: 0.06-16
- MIC [2]: 8-32
- MIC [3]: 0.03-16
- Susceptibility category [4]: Active
- MIC [4]: 0.125-0.5
- Susceptibility category [5]: Active
- MIC [5]: 1-2
- MIC [6]: 0.03-8
- Susceptibility category [7]: Active
- MIC [8]: 16 µg/mL (≈ 22.7 µM)
- MIC [9]: 16 µg/mL (≈ 22.7 µM)
- MIC [10]: 16
- MIC [11]: 16 µg/mL (≈ 22.7 µM)
- MIC [12]: 8-16
- MIC [13]: 0.03-8
- Susceptibility category [14]: Active
- MIC [14]: 1-2
- MIC [15]: 0.03-4
- Susceptibility category [16]: Active
- MIC [16]: 1-2
- MIC [17]: 8-16
- Susceptibility category [18]: Active
- MIC [18]: 0.25-0.5
- Susceptibility category [19]: Active
- MIC [19]: 0.5-2
- MIC [20]: 0.03-16
- MIC [21]: 8-16

SMILES: C[C@@H]1[C@H](O)[C@@H](C)/C=C/C=C/C=C/C=C/C=C/C=C/C=C/[C@H](O[C@@H]2O[C@H](C)[C@@H](O)[C@H](N)[C@@H]2O)C[C@@H]2O[C@](O)(C[C@@H](O)C[C@@H](O)[C@H](O)CC[C@@H](O)C[C@@H](O)CC(=O)O[C@H]1C)C[C@H](O)[C@H]2C(=O)O [Amphotericin B]
- Susceptibility category [1]: Intermediate
- MIC [1]: 1-4
- Susceptibility category [2]: Active
- MIC [2]: 0.5-1
- Susceptibility category [3]: Active
- MIC [3]: 0.5-1
- Susceptibility category [4]: Intermediate
- MIC [4]: 2-4
- Susceptibility category [5]: Active
- MIC [5]: 1-2
- Susceptibility category [6]: Active
- MIC [6]: 1-2
- Susceptibility category [7]: Active
- MIC [7]: 0.5-1
- Susceptibility category [8]: Intermediate
- MIC [8]: 4 µg/mL (≈ 4.33 µM)
- Susceptibility category [9]: Active
- MIC [9]: 2 µg/mL (≈ 2.16 µM)
- Susceptibility category [10]: Active
- MIC [10]: 0.5
- Susceptibility category [11]: Active
- MIC [11]: 0.5 µg/mL (≈ 0.541 µM)
- Susceptibility category [12]: Active
- MIC [12]: 0.5-2
- Susceptibility category [13]: Active
- MIC [13]: 0.125-1
- Susceptibility category [14]: Active
- MIC [14]: 0.5-2
- Susceptibility category [15]: Active
- MIC [15]: 0.25-1
- Susceptibility category [16]: Active
- MIC [16]: 0.25-1
- Susceptibility category [17]: Active
- MIC [17]: 0.125-1
- Susceptibility category [18]: Active
- MIC [18]: 0.5
- Susceptibility category [19]: Active
- MIC [19]: 0.5-1
- Susceptibility category [20]: Active
- MIC [20]: 0.5-2
- Susceptibility category [21]: Active
- MIC [21]: 0.25-1

SMILES: OC(Cn1cncn1)(Cn1cncn1)c1ccc(F)cc1F [Fluconazole]
- Susceptibility category [1]: Resistant
- MIC [1]: 64
- Susceptibility category [2]: Resistant
- MIC [2]: 16-64
- Susceptibility category [3]: Resistant
- MIC [3]: 8-64
- Susceptibility category [4]: Resistant
- MIC [4]: 64
- Susceptibility category [5]: Resistant
- MIC [5]: 32-64
- Susceptibility category [6]: Resistant
- MIC [6]: 64
- Susceptibility category [7]: Resistant
- MIC [7]: 8-32
- Susceptibility category [8]: Resistant
- MIC [8]: 16 µg/mL (≈ 52.2 µM)
- Susceptibility category [9]: Resistant
- MIC [9]: 64 µg/mL (≈ 209 µM)
- Susceptibility category [10]: Resistant
- MIC [10]: 64
- Susceptibility category [11]: Resistant
- MIC [11]: 32 µg/mL (≈ 104 µM)
- Susceptibility category [12]: Resistant
- MIC [12]: 8-64
- Susceptibility category [13]: Variable
- MIC [13]: 0.125-64
- Susceptibility category [14]: Resistant
- MIC [14]: 32-64
- Susceptibility category [15]: Variable
- MIC [15]: 0.125-16
- Susceptibility category [16]: Resistant
- MIC [16]: 32-64
- Susceptibility category [17]: Resistant
- MIC [17]: 8-64
- Susceptibility category [18]: Resistant
- MIC [18]: 64
- Susceptibility category [19]: Resistant
- MIC [19]: 32-64
- Susceptibility category [20]: Resistant
- MIC [20]: 32-64
- Susceptibility category [21]: Variable/Resistant
- MIC [21]: 4-32

SMILES: C[C@@H](c1ncncc1F)[C@](O)(Cn1cncn1)c1ccc(F)cc1F [Voriconazole]
- Susceptibility category [1]: Variable
- MIC [1]: 0.125-8
- Susceptibility category [2]: Intermediate
- MIC [2]: 0.5-4
- Susceptibility category [3]: Variable
- MIC [3]: 0.03-16
- Susceptibility category [4]: Intermediate
- MIC [4]: 0.5-4
- Susceptibility category [5]: Active
- MIC [5]: 0.5-1
- Susceptibility category [6]: Resistant
- MIC [6]: 8-16
- Susceptibility category [7]: Active
- Susceptibility category [8]: Active
- MIC [8]: 1 µg/mL (≈ 2.86 µM)
- Susceptibility category [9]: Intermediate
- MIC [9]: 8 µg/mL (≈ 22.9 µM)
- Susceptibility category [10]: Variable
- MIC [10]: 2-16
- Susceptibility category [11]: Active
- MIC [11]: 0.5 µg/mL (≈ 1.43 µM)
- Susceptibility category [12]: Variable
- MIC [12]: 1-8
- Susceptibility category [13]: Variable
- MIC [13]: 0.03-8
- Susceptibility category [14]: Active
- MIC [14]: 0.5-1
- Susceptibility category [15]: Variable
- MIC [15]: 0.03-16
- Susceptibility category [16]: Active
- MIC [16]: 0.25-1
- Susceptibility category [17]: Active
- MIC [17]: 1-2
- Susceptibility category [18]: Active
- MIC [18]: 0.125-0.5
- Susceptibility category [19]: Active
- MIC [19]: 0.25-2
- Susceptibility category [20]: Active
- MIC [20]: 0.125-1
- Susceptibility category [21]: Active
- MIC [21]: 0.25-0.5
